Structures can show the parent of a compound that is named as a salt.

This is an account of results in US8580959B2, “Azolotriazinone melanin concentrating hormone receptor-1 antagonists” (Bristol-Myers Squibb Company, priority 2008, dated 2013).

For one experiment, the system named is Male SPRAGUE DAWLEY rats. The experiment can be described thus: Assessment of in vivo MCHR activity (body weight, rats with choice of chow and high fat high sugar diet). The arrangement: species or system rat. To be noted: dose 30 mg/kg p.o. daily day 0 through day 4, rats; parent dosed as its prodrug example (22, 63, 50). How it is done:
Assessment of In Vivo MCHR Activity
Male SPRAGUE DAWLEY® (CD, Charles River Breeding Laboratory) rats weighing approximately 240 grams were place in individual plastic cages with ALPHADRI® bedding. The room was maintained at 72° F. and 50% humidity, and a 12/12 light dark cycle with lights out at 1600 hours. The rats were conditioned for 5 days prior to the start of the study to having a choice of foods. A normal chow (HARLAN TEKLAD®, 2018) that contains 18% protein, 5% fat and 73% carbohydrate and a high fat high sugar diet (Research Diets (D2327)) that contains 20% protein, 40% fat and 40% carbohydrate where the carbohydrate is entirely sucrose and the fat is soybean and coconut oil. […] Body weight and consumption of both kinds of food as well as water intake were measured daily. Water was available ad lib throughout the study. Food consumption is presented as daily caloric consumption which is the sum of grams of chow multiplied by the Kcal per gram (3.5) plus grams of high fat high sugar multiplied by Kcal per gram (4.59).
Baseline body weight was measured prior to drug treatment on day 0 of the study. Baseline food consumption was the average of the 3 days prior to the first drug treatment. Drug was administered daily p.o. at 2.0 ml/kg at 1500 hours beginning on day 0 and continuing daily through day 4 as a suspension in 0.5% methyl cellulose, 0.1% Tween 80 in water at 3.0, 10 and 30 mg/kg p.o. All data were evaluated using ANOVA and Fishers PLSD statistics.

The target in experiment [1] is T1, mutated (E4Q, A5T) hMCHR1 receptor (Homo sapiens, UniProt Q99705, A5T/E4Q).
T1 construct: expressed in transfected cells; host or cells: HEK-293 (stably transfected), membranes
Description: Radioligand binding assay for assessment of MCHR1 activity (human). As to conditions: membranes of HEK-293 cells, [Phe13,[125I]Tyr19]-MCH competition. As to the method:
Radioligand Binding Assay for Assessment of MCHR1 Activity
Membranes from stably transfected HEK-293 cells expressing a mutated (E4Q, A5T) hMCHR1 receptor were prepared by dounce homogenization and differential centrifugation. Binding experiments were carried out with 0.5-1.0 ug of membrane protein incubated in a total of 0.2 ml in 25 mM HEPES (pH 7.4) with 10 mM MgCl2, 2 mM EGTA, and 0.1% BSA (Binding Buffer) for 90 min. […] Filters were dried, 0.05 ml microscint 20 was added to each well and radioactivity was subsequently quantified by scintillation counting on a TOPCOUNT® microplate scintillation counter (Packard). Inhibitory constants were determined by nonlinear least squares analysis using a four parameter logistic equation.

The target of another experiment is MCHR1 Rat (Rattus norvegicus, UniProt P97639). The experiment can be described thus: MCHR1 rat binding (radioligand binding assay).
MCHR1 Rat, sequence (P97639 whole entry): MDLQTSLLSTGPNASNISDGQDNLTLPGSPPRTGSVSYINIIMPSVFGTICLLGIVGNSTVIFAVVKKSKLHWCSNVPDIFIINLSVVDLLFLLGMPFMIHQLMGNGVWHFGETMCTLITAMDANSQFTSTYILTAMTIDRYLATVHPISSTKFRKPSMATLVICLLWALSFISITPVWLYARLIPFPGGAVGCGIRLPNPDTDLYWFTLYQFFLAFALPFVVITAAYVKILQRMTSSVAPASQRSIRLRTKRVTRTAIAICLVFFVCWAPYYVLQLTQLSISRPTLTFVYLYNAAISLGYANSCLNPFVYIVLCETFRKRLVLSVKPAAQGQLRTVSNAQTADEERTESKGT

T1 sequence (Q99705 whole entry E4Q/A5T): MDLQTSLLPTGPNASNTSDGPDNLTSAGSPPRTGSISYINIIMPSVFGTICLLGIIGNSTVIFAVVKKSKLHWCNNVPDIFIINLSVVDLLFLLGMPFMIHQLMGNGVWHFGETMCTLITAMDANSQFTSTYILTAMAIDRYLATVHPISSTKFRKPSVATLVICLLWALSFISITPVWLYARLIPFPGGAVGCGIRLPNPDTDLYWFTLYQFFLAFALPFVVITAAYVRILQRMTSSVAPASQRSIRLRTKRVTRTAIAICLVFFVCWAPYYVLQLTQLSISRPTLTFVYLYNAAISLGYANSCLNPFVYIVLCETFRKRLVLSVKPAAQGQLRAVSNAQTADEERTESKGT

Consider “6-(4-Chlorophenyl)-3-(4-(2-hydroxy-2-methylpropoxy)-3-methoxyphenyl)pyrrolo[1,2-f][1,2,4]triazin-4(3H)-one [Example 1]”, for which, in the experiment with Male SPRAGUE DAWLEY rats, the “% Weight Reduction versus Vehicle” value was found to be 6.9%.

By Ki is commonly meant a dissociation constant, usually derived from enzyme kinetics or from competition with a known ligand. Turning to `COc1cc(-n2cnn3cc(-c4ccc(Cl)cc4)cc3c2=O)ccc1OCC(C)(C)O` [Example 1, 6-(4-Chlorophenyl)-3-(4-(2-hydroxy-2-methylpropoxy)-3-methoxyphenyl)pyrrolo[1,2-f][1,2,4]triazin-4(3H)-one], the Ki in experiment [1] stood at 4.42 nM; at MCHR1 Rat, 2.76 nM.

`COc1ccc(-n2cnn3cc(-c4ccc(Cl)cc4)cc3c2=O)cc1OC` [Example 2, 6-(4-Chlorophenyl)-3-(3,4-dimethoxyphenyl)pyrrolo[1,2-f][1,2,4]triazin-4(3H)-one]: the Ki stood at 21.4 nM in experiment [1] and 8.29 nM at MCHR1 Rat.

For the molecule `COc1cc(-n2cnn3cc(-c4ccc(Cl)cc4)cc3c2=O)ccc1OCC(O)C1CC1` (centres unmarked) [Example 3, 6-(4-Chlorophenyl)-3-(4-(2-cyclopropyl-2-hydroxyethoxy)-3-methoxyphenyl)pyrrolo[1,2-f][1,2,4]triazin-4(3H)-one], the values for the Ki (in experiment [1]; on MCHR1 Rat) were 4.49 nM and 2.79 nM, respectively.

In the case of `COc1cc(-n2cnn3cc(-c4ccc(Cl)cc4)cc3c2=O)ccc1OCCN1CCCC1` [Example 4, 6-(4-Chlorophenyl)-3-(3-methoxy-4-(2-(pyrrolidin-1-yl)ethoxy)phenyl)pyrrolo[1,2-f][1,2,4]triazin-4(3H)-one], the Ki in experiment [1] worked out at 0.52 nM; at MCHR1 Rat, 0.7 nM.

Turning to `COc1cc(-n2cnn3nc(-c4ccc(Cl)cc4)cc3c2=O)ccc1OCCN1CCC(O)C1` (centres unmarked) [Example 6, 6-(4-Chlorophenyl)-3-(4-(2-(3-hydroxypyrrolidin-1-yl)ethoxy)-3-methoxyphenyl)pyrazolo[1,5-f][1,2,4]triazin-4(3H)-one], the inhibitory constant (Ki) in experiment [1] stood at 2.2 nM; on MCHR1 Rat it was 0.8 nM.

The molecule `COc1cc(-n2cnn3cc(-c4ccc(Cl)cc4)cc3c2=O)ccc1OCC(C)N1CCCC1` (centres unmarked) [Example 13, 6-(4-Chlorophenyl)-3-[3-methoxy-4-(2-pyrrolidin-1-yl-propoxy)-phenyl]-3H-pyrrolo[2,1-f] [1,2,4]triazin-4-one] showed an inhibition constant (Ki) in experiment [1] of 0.17 nM.

`O=c1c2cc(-c3ccc(Cl)cc3)cn2ncn1-c1ccc(N2CCC(O)CC2)nc1` [Example 18, 6-(4-Chlorophenyl)-3-(6-(4-hydroxypiperidin-1-yl)pyridin-3-yl)pyrrolo[1,2-f][1,2,4]triazin-4(3H)-one] returned an inhibition constant (Ki) in experiment [1] of 11.5 nM.

In the case of `O=c1c2cc(-c3ccc(Cl)cn3)cn2ncn1-c1ccc(N2CC[C@@H](O)C2)nc1` [Example 31, 6-(5-Chloropyridin-2-yl)-3-[6-(3-hydroxy-pyrrolidin-1-yl)-pyridin-3-yl]-3H-pyrrolo[2,1-f][1,2,4]triazin-4-one], in experiment [1], the inhibition constant (Ki) came to 124 nM.

As for `COc1cc(-n2cnn3cc(-c4ccc(Cl)cn4)cc3c2=O)ccc1OCC(C)(C)O` [Example 33, 6-(5-Chloropyridin-2-yl)-3-[4-(2-hydroxy-2-methyl-propoxy)-3-methoxy-phenyl]-3H-pyrrolo[2,1-f][1,2,4]triazin-4-one], in the experiment with Male SPRAGUE DAWLEY rats, the “% Weight Reduction versus Vehicle” value is recorded as 11.2%.

Molecule `COc1ccc(-n2cnn3cc(-c4ccc(Cl)cc4)nc3c2=O)cc1OC` [Example 38, 6-(4-Chlorophenyl)-3-(3,4-dimethoxy-phenyl)-3H-imidazo[2,1-f][1,2,4]triazin-4-one] showed a Ki in experiment [1] of 76.1 nM.

Turning to `COc1cc(-n2cnn3cc(-c4ccc(Cl)cn4)cc3c2=O)ccc1OCC1(O)CC(F)(F)C1` [Example 46, 6-(5-Chloropyridin-2-yl)-3-(4-((3,3-difluoro-1-hydroxycyclobutyl)methoxy)-3-methoxyphenyl)pyrrolo[1,2-f][1,2,4]triazin-4(3H)-one-4(3H)-one], in the experiment with Male SPRAGUE DAWLEY rats, the “% Weight Reduction versus Vehicle” value stood at 2.6%.

As to `COc1cc(-n2cnn3cc(-c4ccc(Cl)cc4)cc3c2=O)ccc1N1C[C@H](OC(=O)[C@@H](N)C(C)C)[C@H](OC(=O)[C@@H](N)C(C)C)C1` [Example 56, (2S,2′S)-((3S,4R)-1-(4-(6-(4-Chlorophenyl)-4-oxopyrrolo[1,2-f][1,2,4]triazin-3(4H)-yl)-2-methoxyphenyl)pyrrolidine-3,4-diyl)bis(2-amino-3-methylbutanoate), 2TFA], in experiment [1], the Ki is 9.4 nM.

The molecule `COc1cc(-n2cnn3cc(-c4ncc(Cl)cn4)cc3c2=O)ccc1OCC1(O)CC(F)(F)C1` [Example 57, 6-(5-Chloropyrimidin-2-yl)-3-(4-((3,3-difluoro-1-hydroxycyclobutyl)methoxy)-3-methoxyphenyl)pyrrolo[1,2-f][1,2,4]triazin-4(3H)-one] displayed an inhibitory constant (Ki) in experiment [1] of 9 nM.

Consider `CCS(=O)(=O)C[C@H](COc1ccc(-n2cnn3cc(-c4ncc(Cl)cn4)cc3c2=O)cc1OC)OC(=O)CN` [Example 61, (S)-1-(4-(6-(5-Chloropyrimidin-2-yl)-4-oxopyrrolo[1,2-f][1,2,4]triazin-3(4H)-yl)-2-methoxyphenoxy)-3-(ethylsulfonyl)propan-2-yl 2-aminoacetate, TFA], for which, in experiment [1], the inhibition constant Ki came to 126 nM.
